In brackets after ≈: the same amount, converted by molar mass.
Test system: Candida albicans ATCC 10231
Experiment: Minimum inhibitory concentration (MIC) by broth microdilution method
Assay type: cell-based
Settings: for MIC value: broth microdilution in MH broth, 37° C., 12 hours, OD600, MIC = lowest concentration that inhibited the growth of more than 90% of the strains; for activity against Candida albicans (in words): summary statement of the MIC experiments
Experimental: The minimum inhibitory concentration (MIC) values of echinocandin E and echinocandin F were determined by broth microdilution method, and the test strain was Candida albicans ATCC 10231. The MIC value was defined as the lowest antibiotic concentration that inhibited the growth of more than 90% of the strains. Amphotericin B was used as a positive control and echinocandin B as a reference, and each sample was subjected to three parallel experiments.
Candida albicans was cultured in Mueller-Hinton (MH) broth (50 mL 20× Nitrate Salts, 1 mL Trace Elements, and 10.0 g glucose, dissolved in 800 mL ddH2O, adjusted to pH 6.5, fixed to 1 L, added with 16.0 g agar powder, and sterilized at 121° C. for 20 min) (purchased from Hangzhou Basebio Biotechnology Co., Ltd. (Basebio)) and cultured at 37° C. and 180 rpm for 12-16 hours. The fungal solution concentration was controlled to […] by gradient dilution with MH broth.
The sample solution was prepared by dissolving the test samples (amphotericin B, echinocandin B, echinocandin E, echinocandin F) in DMSO to prepare a stock solution with a concentration of 40 μg/ml. An appropriate amount of sterile MH broth medium and the test compounds were added to a 96-well plate, and Candida albicans was quantitatively inoculated so that the total liquid volume in each well was 100 μL. The final concentrations of the compounds were 2, 1.5, 1, 0.8, 0.6, 0.4, 0.2, 0.1, 0.05 and 0 μg/ml, respectively, and DMSO (volume concentration of 5%) was used as a negative control.
The fungal concentration was measured at OD600 using an ELISA reader to determine the MIC value of each sample.

Compound: C[C@@H]1[C@H](O)[C@@H](C)/C=C/C=C/C=C/C=C/C=C/C=C/C=C/[C@H](O[C@@H]2O[C@H](C)[C@@H](O)[C@H](N)[C@@H]2O)C[C@@H]2O[C@](O)(C[C@@H](O)C[C@@H](O)[C@H](O)CC[C@@H](O)C[C@@H](O)CC(=O)O[C@H]1C)C[C@H](O)[C@H]2C(=O)O [Amphotericin B, reference compound]
- MIC value: 0.2 µg/mL (≈ 0.216 µM)

Compound: echinocandin B [reference compound]
- MIC value: 0.4 µg/mL

Compound: echinocandin E
- MIC value: 0.6 µg/mL
- activity against Candida albicans (in words): good activity

Compound: echinocandin F
- MIC value: 1.0 µg/mL
- activity against Candida albicans (in words): good activity

Compound: echinocandin G
- MIC value: 0.8 µg/mL
- activity against Candida albicans (in words): good activity

Compound: echinocandin H
- MIC value: 0.8 µg/mL
- activity against Candida albicans (in words): good activity
